In publication PMC8073777, “Design, Synthesis, Biological Evaluation and In Silico Studies of Pyrazole-Based NH2-Acyl Oseltamivir Analogues as Potent Neuraminidase Inhibitors” (Pharmaceuticals, 2021):

molecular target: A/H3N2 influenza NA (Influenza A virus (H3N2), UniProt Q91IQ5); type: biochemical, A/H3N2 influenza virus (clinical isolate from Hong Kong); conditions: 10 µM

First: CCC(CC)O[C@@H]1C=C(C(=O)O)C[C@H](NC(=O)c2cnn(Cc3ccccc3)c2)[C@H]1NC(C)=O [Compound 6a, (3R,4R,5S)-4-acetamido-5-(1-benzyl-1H-pyrazole-4-carboxamido)-3-(pentan-3-yloxy) cyclohex-1-ene-1-carboxylic acid]
Second: CCC(CC)O[C@@H]1C=C(C(=O)O)C[C@H](NC(=O)c2cnn(Cc3ccccc3Cl)c2)[C@H]1NC(C)=O [Compound 6b, (3R,4R,5S)-4-acetamido-5-(1-(2-chlorobenzyl)-1H-pyrazole-4-carboxamido)-3-(pentan-3-yloxy) cyclohex-1-ene-1-carboxylic acid]
The “Inhibitory rate against A/H3N2 influenza NA” value (shortened to “Inhibitory rate”) of the first is higher: 32.02% for the first, 18.88% for the second.

First: CCC(CC)O[C@@H]1C=C(C(=O)O)C[C@H](NC(=O)c2cnn(Cc3cccc(Cl)c3)c2)[C@H]1NC(C)=O [Compound 6c, (3R,4R,5S)-4-acetamido-5-(1-(3-chlorobenzyl)-1H-pyrazole-4-carboxamido)-3-(pentan-3-yloxy) cyclohex-1-ene-1-carboxylic acid]
Second: CCC(CC)O[C@@H]1C=C(C(=O)O)C[C@H](NC(=O)c2cnn(Cc3cccc(OC)c3)c2)[C@H]1NC(C)=O [Compound 6e, (3R,4R,5S)-4-acetamido-5-(1-(3-methoxybenzyl)-1H-pyrazole-4-carboxamido)-3-(pentan-3-yloxy) cyclohex-1-ene-1-carboxylic acid]
The “Inhibitory rate” value of the first is higher: 23.88% for the first, 23.37% for the second.

Going from `CCC(CC)O[C@@H]1C=C(C(=O)O)C[C@H](NC(=O)c2cnn(Cc3cccc([N+](=O)[O-])c3)c2)[C@H]1NC(C)=O` [Compound 6d, (3R,4R,5S)-4-acetamido-5-(1-(3-nitrobenzyl)-1H-pyrazole-4-carboxamido)-3-(pentan-3-yloxy) cyclohex-1-ene-1-carboxylic acid] to `CCC(CC)O[C@@H]1C=C(C(=O)O)C[C@H](NC(=O)c2cnn(Cc3ccc(OC)cc3)c2)[C@H]1NC(C)=O` [Compound 6f, (3R,4R,5S)-4-acetamido-5-(1-(4-methoxybenzyl)-1H-pyrazole-4-carboxamido)-3-(pentan-3-yloxy) cyclohex-1-ene-1-carboxylic acid], the “Inhibitory rate” value rises from 12.26% to 26.79%.

Going from `CCC(CC)O[C@@H]1C=C(C(=O)O)C[C@H](NC(=O)c2cnn(Cc3ccc(C(F)(F)F)cc3)c2)[C@H]1NC(C)=O` [Compound 6g, (3R,4R,5S)-4-acetamido-3-(pentan-3-yloxy)-5-(1-(4-(trifluoromethyl)benzyl)-1H-pyrazole-4-carboxamido) cyclohex-1-ene-1-carboxylic acid] to `CCC(CC)O[C@@H]1C=C(C(=O)O)C[C@H](NC(=O)c2cc(-c3ccc(C(F)(F)F)cc3)n[nH]2)[C@H]1NC(C)=O` [Compound 12d, (3R,4R,5S)-4-acetamido-3-(pentan-3-yloxy)-5-(3-(4-(trifluoromethyl)phenyl)-1H-pyrazole-5-carboxamido) cyclohex-1-ene-1-carboxylic acid], the “Inhibitory rate” value rises from 21.72% to 46.7%.

Going from `CCC(CC)O[C@@H]1C=C(C(=O)O)C[C@H](NC(=O)c2cnn(-c3ccccc3C)c2)[C@H]1NC(C)=O` [Compound 6h, (3R,4R,5S)-4-acetamido-3-(pentan-3-yloxy)-5-(1-(o-tolyl)-1H-pyrazole-4-carboxamido) cyclohex-1-ene-1-carboxylic acid] to `CCC(CC)O[C@@H]1C=C(C(=O)O)C[C@H](NC(=O)c2cnn(-c3ccc(C)cc3)c2)[C@H]1NC(C)=O` [Compound 6i, (3R,4R,5S)-4-acetamido-3-(pentan-3-yloxy)-5-(1-(p-tolyl)-1H-pyrazole-4-carboxamido) cyclohex-1-ene-1-carboxylic acid], the “Inhibitory rate” value rises from 38.37% to 52.31%.

First: CCC(CC)O[C@@H]1C=C(C(=O)O)C[C@H](NC(=O)c2cnn(-c3ccc(OC)cc3)c2)[C@H]1NC(C)=O [Compound 6j, (3R,4R,5S)-4-acetamido-5-(1-(4-methoxyphenyl)-1H-pyrazole-4-carboxamido)-3-(pentan-3-yloxy) cyclohex-1-ene-1-carboxylic acid]
Second: CCC(CC)O[C@@H]1C=C(C(=O)O)C[C@H](NC(=O)c2cnn(-c3ccc(Cl)cc3)c2)[C@H]1NC(C)=O [Compound 6k, (3R,4R,5S)-4-acetamido-5-(1-(4-chlorophenyl)-1H-pyrazole-4-carboxamido)-3-(pentan-3-yloxy) cyclohex-1-ene-1-carboxylic acid]
The “Inhibitory rate” value of the first is higher: 34.15% for the first, 25.67% for the second.

Compared with `CCC(CC)O[C@@H]1C=C(C(=O)O)C[C@H](NC(=O)c2cc(-c3ccccc3)n[nH]2)[C@H]1NC(C)=O` [Compound 12a, (3R,4R,5S)-4-acetamido-3-(pentan-3-yloxy)-5-(3-phenyl-1H-pyrazole-5-carboxamido) cyclohex-1-ene-1-carboxylic acid], `CCC(CC)O[C@@H]1C=C(C(=O)O)C[C@H](NC(=O)c2cc(-c3ccc(Cl)cc3)n[nH]2)[C@H]1NC(C)=O` [Compound 12b, (3R,4R,5S)-4-acetamido-5-(3-(4-chlorophenyl)-1H-pyrazole-5-carboxamido)-3-(pentan-3-yloxy) cyclohex-1-ene-1-carboxylic acid] is higher in “Inhibitory rate” value: 42.81% for the first, 50.43% for the second.

First: CCC(CC)O[C@@H]1C=C(C(=O)O)C[C@H](NC(=O)c2cc(-c3ccc(F)cc3)n[nH]2)[C@H]1NC(C)=O [Compound 12c, (3R,4R,5S)-4-acetamido-5-(3-(4-fluorophenyl)-1H-pyrazole-5-carboxamido)-3-(pentan-3-yloxy) cyclohex-1-ene-1-carboxylic acid]
Second: CCC(CC)O[C@@H]1C=C(C(=O)O)C[C@H](NC(=O)c2cc(-c3ccc(OC)cc3)n[nH]2)[C@H]1NC(C)=O [Compound 12e, (3R,4R,5S)-4-acetamido-5-(3-(4-methoxyphenyl)-1H-pyrazole-5-carboxamido)-3-(pentan-3-yloxy) cyclohex-1-ene-1-carboxylic acid]
The “Inhibitory rate” value of the first is higher: 56.45% for the first, 42.02% for the second.

Compared with `CCC(CC)O[C@@H]1C=C(C(=O)O)C[C@H](NC(=O)c2cc(-c3cccs3)n[nH]2)[C@H]1NC(C)=O` [Compound 12f, (3R,4R,5S)-4-acetamido-3-(pentan-3-yloxy)-5-(3-(thiophen-2-yl)-1H-pyrazole-5-carboxamido) cyclohex-1-ene-1-carboxylic acid], `CCC(CC)O[C@@H]1C=C(C(=O)O)C[C@H](NC(=O)c2cc(C3CC3)nn2-c2ccccc2C)[C@H]1NC(C)=O` [Compound 26b, (3R,4R,5S)-4-acetamido-5-(3-cyclopropyl-1-(o-tolyl)-1H-pyrazole-5-carboxamido)-3-(pentan-3-yloxy) cyclohex-1-ene-1-carboxylic acid] is higher in “Inhibitory rate” value: 40.02% for the first, 72.80% for the second.

Going from `CCC(CC)O[C@@H]1C=C(C(=O)O)C[C@H](NC(=O)c2cc(-c3ccc(Cl)cc3)nn2CC2CC2)[C@H]1NC(C)=O` [Compound 16a, (3R,4R,5S)-4-acetamido-5-(3-(4-chlorophenyl)-1-(cyclopropylmethyl)-1H-pyrazole-5-carboxamido)-3-(pentan-3-yloxy) cyclohex-1-ene-1-carboxylic acid] to `CCC(CC)O[C@@H]1C=C(C(=O)O)C[C@H](NC(=O)c2cc(-c3ccc(Cl)cc3)nn2CC2CCC2)[C@H]1NC(C)=O` [Compound 16b, (3R,4R,5S)-4-acetamido-5-(3-(4-chlorophenyl)-1-(cyclobutylmethyl)-1H-pyrazole-5-carboxamido)-3-(pentan-3-yloxy) cyclohex-1-ene-1-carboxylic acid], the “Inhibitory rate” value rises from 31.50% to 39.81%.

Going from `CCC(CC)O[C@@H]1C=C(C(=O)O)C[C@H](NC(=O)c2cc(-c3ccc(Cl)cc3)nn2CC2CCCCC2)[C@H]1NC(C)=O` [Compound 16c, (3R,4R,5S)-4-acetamido-5-(3-(4-chlorophenyl)-1-(cyclohexylmethyl)-1H-pyrazole-5-carboxamido)-3-(pentan-3-yloxy) cyclohex-1-ene-1-carboxylic acid] to `CCC(CC)O[C@@H]1C=C(C(=O)O)C[C@H](NC(=O)c2cc(C3CC3)nn2-c2ccccc2)[C@H]1NC(C)=O` [Compound 26a, (3R,4R,5S)-4-acetamido-5-(3-cyclopropyl-1-phenyl-1H-pyrazole-5-carboxamido)-3-(pentan-3-yloxy) cyclohex-1-ene-1-carboxylic acid], the “Inhibitory rate” value falls from 48.50% to 30.41%.

Going from `CCC(CC)O[C@@H]1C=C(C(=O)O)C[C@H](NC(=O)c2cc(C3CC3)n(-c3ccccc3)n2)[C@H]1NC(C)=O` [Compound 24a, (3R,4R,5S)-4-acetamido-5-(5-cyclopropyl-1-phenyl-1H-pyrazole-3-carboxamido)-3-(pentan-3-yloxy) cyclohex-1-ene-1-carboxylic acid] to `CCC(CC)O[C@@H]1C=C(C(=O)O)C[C@H](NC(=O)c2cc(C3CC3)n(-c3ccccc3C)n2)[C@H]1NC(C)=O` [Compound 24b, (3R,4R,5S)-4-acetamido-5-(5-cyclopropyl-1-(o-tolyl)-1H-pyrazole-3-carboxamido)-3-(pentan-3-yloxy) cyclohex-1-ene-1-carboxylic acid], the “Inhibitory rate” value rises from 30.57% to 60.91%.

Going from `CCC(CC)O[C@@H]1C=C(C(=O)O)C[C@H](NC(=O)c2cc(C3CC3)n(-c3cccc(C)c3)n2)[C@H]1NC(C)=O` [Compound 24c, (3R,4R,5S)-4-acetamido-5-(5-cyclopropyl-1-(m-tolyl)-1H-pyrazole-3-carboxamido)-3-(pentan-3-yloxy) cyclohex-1-ene-1-carboxylic acid] to `CCC(CC)O[C@@H]1C=C(C(=O)O)C[C@H](NC(=O)c2cc(C3CC3)n(-c3ccc(Br)cc3)n2)[C@H]1NC(C)=O` [Compound 24d, (3R,4R,5S)-4-acetamido-5-(1-(4-bromophenyl)-5-cyclopropyl-1H-pyrazole-3-carboxamido)-3-(pentan-3-yloxy) cyclohex-1-ene-1-carboxylic acid], the “Inhibitory rate” value rises from 34.75% to 42.68%.

With `CCC(CC)O[C@@H]1C=C(C(=O)O)C[C@H](NC(=O)c2cc(C3CC3)n(-c3ccc(C(F)(F)F)cc3)n2)[C@H]1NC(C)=O` [Compound 24e, (3R,4R,5S)-4-acetamido-5-(5-cyclopropyl-1-(4-(trifluoromethyl)phenyl)-1H-pyrazole-3-carboxamido)-3-(pentan-3-yloxy) cyclohex-1-ene-1-carboxylic acid] the “Inhibitory rate” value was 44.47%.
